Measured values as given in ChEMBL document CHEMBL1148776, “Structure-based optimization of protein tyrosine phosphatase 1B inhibitors: from the active site to the second phosphotyrosine binding site” (J Med Chem, 2007).

target: T1, Tyrosine-protein phosphatase non-receptor type 1 (Homo sapiens, UniProt P18031); assay: Inhibition of human recombinant PTP1B
T1 sequence (P18031 whole entry): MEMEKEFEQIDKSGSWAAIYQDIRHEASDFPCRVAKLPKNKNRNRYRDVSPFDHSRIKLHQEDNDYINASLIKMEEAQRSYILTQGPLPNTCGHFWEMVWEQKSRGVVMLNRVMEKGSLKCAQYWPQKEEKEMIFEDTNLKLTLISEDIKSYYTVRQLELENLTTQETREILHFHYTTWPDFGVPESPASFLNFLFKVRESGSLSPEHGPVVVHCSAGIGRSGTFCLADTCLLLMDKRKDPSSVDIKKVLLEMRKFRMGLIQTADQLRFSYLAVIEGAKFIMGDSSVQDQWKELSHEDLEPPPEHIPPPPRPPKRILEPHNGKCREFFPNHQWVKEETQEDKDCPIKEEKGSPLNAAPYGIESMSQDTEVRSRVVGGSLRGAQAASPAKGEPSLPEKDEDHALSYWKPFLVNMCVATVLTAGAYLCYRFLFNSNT

Structure (SMILES)	Ki
O=C(O)COc1c(C(=O)O)sc(-c2cccc(NCC3CCN(C(=O)Nc4ccccc4)CC3)c2)c1Br	0.007 µM
O=C(O)COc1c(C(=O)O)sc(-c2cccc(OCC3CCN(C(=O)Nc4ccccc4)CC3)c2)c1Br	0.013 µM
O=C(O)COc1c(C(=O)O)sc(-c2cccc(NC3CCN(S(=O)(=O)Cc4ccc(Cl)cc4)CC3)c2)c1Br	0.038 µM
O=C(O)COc1c(C(=O)O)sc(-c2cccc(NC3CCN(S(=O)(=O)Cc4ccccc4Cl)CC3)c2)c1Br	0.005 µM
O=C(O)COc1c(C(=O)O)sc(-c2cccc(NC3CCN(S(=O)(=O)Cc4ccccc4C(F)(F)F)CC3)c2)c1Br	0.006 µM
Cc1cccc(C)c1CS(=O)(=O)N1CCC(Nc2cccc(-c3sc(C(=O)O)c(OCC(=O)O)c3Br)c2)CC1	0.006 µM
COc1ccccc1NC(=O)N1CCC(CNc2cccc(-c3sc(C(=O)O)c(OCC(=O)O)c3Br)c2)CC1	0.003 µM
Cc1cccc(C)c1NC(=O)N1CCC(CNc2cccc(-c3sc(C(=O)O)c(OCC(=O)O)c3Br)c2)CC1	0.003 µM
COC(=O)N1CCC(Nc2cccc(-c3sc(C(=O)O)c(OCC(=O)O)c3Br)c2)CC1	0.39 µM
Cc1c(-c2cccc(NC3CCN(S(=O)(=O)Cc4ccccc4)CC3)c2)sc(C(=O)O)c1OCC(=O)O	0.008 µM
O=C(O)COc1c(C(=O)O)sc(-c2cccc(NC3CCN(S(=O)(=O)Cc4ccccc4)CC3)c2)c1Cl	0.00068 µM
O=C(O)COc1c(C(=O)O)sc(-c2cccc(OC3CCN(S(=O)(=O)Cc4ccccc4)CC3)c2)c1Br	0.024 µM
O=C(O)COc1c(C(=O)O)sc(-c2cccc(NCC3CCN(C(=O)Nc4ccccc4Cl)CC3)c2)c1Br	0.004 µM
O=C(O)COc1cc(-c2cccc(NC3CCN(S(=O)(=O)Cc4ccccc4)CC3)c2)sc1C(=O)O	2 µM
O=C(O)COc1c(C(=O)O)sc(-c2cccc(NCC3CCN(S(=O)(=O)Cc4ccccc4)CC3)c2)c1Br	0.074 µM
O=C(O)COc1c(C(=O)O)sc(-c2cccc(NC3CCN(S(=O)(=O)Cc4cccc(Cl)c4)CC3)c2)c1Br	0.01 µM
Cc1ccccc1CS(=O)(=O)N1CCC(Nc2cccc(-c3sc(C(=O)O)c(OCC(=O)O)c3Br)c2)CC1	0.004 µM
CS(=O)(=O)Nc1ccccc1CS(=O)(=O)N1CCC(Nc2cccc(-c3sc(C(=O)O)c(OCC(=O)O)c3Br)c2)CC1	0.001 µM
O=C(O)COc1c(C(=O)O)sc(-c2cccc(NC3CCN(C(=O)NCc4ccccc4)CC3)c2)c1Br	0.3 µM
Cc1ccccc1NC(=O)N1CCC(CNc2cccc(-c3sc(C(=O)O)c(OCC(=O)O)c3Br)c2)CC1	0.003 µM
CCNC(=O)Nc1ccccc1CS(=O)(=O)N1CCC(Nc2cccc(-c3sc(C(=O)O)c(OCC(=O)O)c3Br)c2)CC1	0.014 µM
O=C(O)COc1c(C(=O)O)sc(-c2cccc(NCC3CCN(S(=O)(=O)c4ccccc4)CC3)c2)c1Br	0.31 µM

More lines, now with the values ahead:

Ki	Structure (SMILES)
1.7 µM	Nc1cccc(-c2sc(C(=O)O)c(OCC(=O)O)c2Br)c1
2 µM	CCC(=O)Nc1cccc(-c2sc(C(=O)O)c(OCC(=O)O)c2Br)c1
2.1 µM	CC(C)NC(=O)Nc1cccc(-c2sc(C(=O)O)c(OCC(=O)O)c2Br)c1
2 µM	COC(=O)Nc1cccc(-c2sc(C(=O)O)c(OCC(=O)O)c2Br)c1
0.2 µM	O=C(O)COc1c(C(=O)O)sc(-c2cccc(NCC3CCCCC3)c2)c1Br
0.12 µM	O=C(O)COc1c(C(=O)O)sc(-c2cccc(NC3CCCCCC3)c2)c1Br
3.8 µM	O=C(O)COc1c(C(=O)O)sc(-c2cccc(NC3CCNCC3)c2)c1Br
0.044 µM	CS(=O)(=O)N1CCC(Nc2cccc(-c3sc(C(=O)O)c(OCC(=O)O)c3Br)c2)CC1
0.055 µM	O=C(O)COc1c(C(=O)O)sc(-c2cccc(NC3CCN(S(=O)(=O)c4ccccc4)CC3)c2)c1Br
0.68 µM	O=C(O)COc1c(C(=O)O)sc(-c2cccc(OCc3ccccc3)c2)c1Br
0.39 µM	O=C(O)COc1c(C(=O)O)sc(-c2cccc(NC3CCCC3)c2)c1Br
0.31 µM	O=C(O)COc1c(C(=O)O)sc(-c2cccc(NC3CCOCC3)c2)c1Br
0.19 µM	CC(=O)N1CCC(Nc2cccc(-c3sc(C(=O)O)c(OCC(=O)O)c3Br)c2)CC1
4 µM	COc1cccc(-c2sc(C(=O)O)c(OCC(=O)O)c2Br)c1
2.1 µM	O=C(O)COc1c(C(=O)O)sc(-c2cccc(NC(=O)c3ccccc3)c2)c1Br
0.44 µM	O=C(O)COc1c(C(=O)O)sc(-c2cccc(NS(=O)(=O)c3ccc(F)cc3)c2)c1Br

target: Receptor-type tyrosine-protein phosphatase F (Homo sapiens, UniProt P10586); assay: Inhibition of human recombinant LAR
Sequence (P10586 whole entry): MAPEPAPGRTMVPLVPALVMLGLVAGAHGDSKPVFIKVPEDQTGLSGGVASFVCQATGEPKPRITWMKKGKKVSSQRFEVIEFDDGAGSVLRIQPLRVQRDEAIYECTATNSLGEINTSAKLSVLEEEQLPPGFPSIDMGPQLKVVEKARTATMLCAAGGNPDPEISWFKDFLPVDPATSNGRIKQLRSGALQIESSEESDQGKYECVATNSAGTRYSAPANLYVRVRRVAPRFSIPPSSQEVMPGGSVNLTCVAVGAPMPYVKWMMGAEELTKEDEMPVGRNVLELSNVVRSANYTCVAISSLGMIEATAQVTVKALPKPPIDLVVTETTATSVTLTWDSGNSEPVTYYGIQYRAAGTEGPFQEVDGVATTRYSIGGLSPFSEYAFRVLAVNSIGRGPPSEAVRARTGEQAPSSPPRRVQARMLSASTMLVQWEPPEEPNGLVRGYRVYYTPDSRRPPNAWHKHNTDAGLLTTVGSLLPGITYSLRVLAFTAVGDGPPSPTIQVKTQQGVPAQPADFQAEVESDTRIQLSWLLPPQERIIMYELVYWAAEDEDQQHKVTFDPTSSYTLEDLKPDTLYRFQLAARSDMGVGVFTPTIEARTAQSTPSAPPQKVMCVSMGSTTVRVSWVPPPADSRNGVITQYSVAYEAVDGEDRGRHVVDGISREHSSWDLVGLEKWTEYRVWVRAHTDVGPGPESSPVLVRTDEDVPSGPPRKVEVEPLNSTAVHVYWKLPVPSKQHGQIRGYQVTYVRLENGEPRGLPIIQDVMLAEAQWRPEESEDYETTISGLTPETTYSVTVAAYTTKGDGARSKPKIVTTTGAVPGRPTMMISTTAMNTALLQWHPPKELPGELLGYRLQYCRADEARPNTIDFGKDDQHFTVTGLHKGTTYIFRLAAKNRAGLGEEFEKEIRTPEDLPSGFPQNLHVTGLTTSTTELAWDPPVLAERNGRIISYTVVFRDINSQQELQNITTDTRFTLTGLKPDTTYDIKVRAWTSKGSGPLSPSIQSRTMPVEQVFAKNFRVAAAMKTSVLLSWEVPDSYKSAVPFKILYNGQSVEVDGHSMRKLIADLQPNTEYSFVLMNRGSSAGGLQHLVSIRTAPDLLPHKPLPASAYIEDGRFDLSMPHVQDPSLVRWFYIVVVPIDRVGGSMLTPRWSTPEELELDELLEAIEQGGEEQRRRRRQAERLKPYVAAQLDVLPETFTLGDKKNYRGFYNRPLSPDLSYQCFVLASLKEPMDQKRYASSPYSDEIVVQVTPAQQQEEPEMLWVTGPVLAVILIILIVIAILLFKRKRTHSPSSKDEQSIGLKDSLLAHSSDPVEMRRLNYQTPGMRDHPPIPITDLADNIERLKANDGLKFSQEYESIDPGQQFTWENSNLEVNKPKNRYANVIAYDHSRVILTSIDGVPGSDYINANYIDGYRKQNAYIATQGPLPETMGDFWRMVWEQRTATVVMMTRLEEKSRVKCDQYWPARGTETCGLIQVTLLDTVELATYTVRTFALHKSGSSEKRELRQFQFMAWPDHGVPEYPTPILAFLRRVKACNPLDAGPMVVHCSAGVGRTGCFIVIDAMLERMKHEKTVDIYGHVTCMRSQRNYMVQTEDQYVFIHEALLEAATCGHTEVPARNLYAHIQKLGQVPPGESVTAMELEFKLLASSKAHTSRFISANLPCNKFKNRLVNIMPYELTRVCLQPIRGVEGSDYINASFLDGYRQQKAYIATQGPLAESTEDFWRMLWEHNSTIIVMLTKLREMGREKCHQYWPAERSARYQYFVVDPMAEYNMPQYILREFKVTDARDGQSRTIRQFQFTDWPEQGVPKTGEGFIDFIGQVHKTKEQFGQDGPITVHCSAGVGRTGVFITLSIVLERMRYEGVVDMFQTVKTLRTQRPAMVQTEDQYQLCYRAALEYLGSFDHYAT

Ki	Structure (SMILES)
> 500 µM	O=C(O)COc1c(C(=O)O)sc(-c2ccccc2)c1Br
> 1000 µM	CC1(C)CC(Nc2cccc(-c3sc(C(=O)O)c(OCC(=O)O)c3Br)c2)CC(C)(C)C1

target: T2, Receptor-type tyrosine-protein phosphatase C (Homo sapiens, UniProt P08575); assay: Inhibition of human recombinant CD45
T2 sequence (P08575 whole entry): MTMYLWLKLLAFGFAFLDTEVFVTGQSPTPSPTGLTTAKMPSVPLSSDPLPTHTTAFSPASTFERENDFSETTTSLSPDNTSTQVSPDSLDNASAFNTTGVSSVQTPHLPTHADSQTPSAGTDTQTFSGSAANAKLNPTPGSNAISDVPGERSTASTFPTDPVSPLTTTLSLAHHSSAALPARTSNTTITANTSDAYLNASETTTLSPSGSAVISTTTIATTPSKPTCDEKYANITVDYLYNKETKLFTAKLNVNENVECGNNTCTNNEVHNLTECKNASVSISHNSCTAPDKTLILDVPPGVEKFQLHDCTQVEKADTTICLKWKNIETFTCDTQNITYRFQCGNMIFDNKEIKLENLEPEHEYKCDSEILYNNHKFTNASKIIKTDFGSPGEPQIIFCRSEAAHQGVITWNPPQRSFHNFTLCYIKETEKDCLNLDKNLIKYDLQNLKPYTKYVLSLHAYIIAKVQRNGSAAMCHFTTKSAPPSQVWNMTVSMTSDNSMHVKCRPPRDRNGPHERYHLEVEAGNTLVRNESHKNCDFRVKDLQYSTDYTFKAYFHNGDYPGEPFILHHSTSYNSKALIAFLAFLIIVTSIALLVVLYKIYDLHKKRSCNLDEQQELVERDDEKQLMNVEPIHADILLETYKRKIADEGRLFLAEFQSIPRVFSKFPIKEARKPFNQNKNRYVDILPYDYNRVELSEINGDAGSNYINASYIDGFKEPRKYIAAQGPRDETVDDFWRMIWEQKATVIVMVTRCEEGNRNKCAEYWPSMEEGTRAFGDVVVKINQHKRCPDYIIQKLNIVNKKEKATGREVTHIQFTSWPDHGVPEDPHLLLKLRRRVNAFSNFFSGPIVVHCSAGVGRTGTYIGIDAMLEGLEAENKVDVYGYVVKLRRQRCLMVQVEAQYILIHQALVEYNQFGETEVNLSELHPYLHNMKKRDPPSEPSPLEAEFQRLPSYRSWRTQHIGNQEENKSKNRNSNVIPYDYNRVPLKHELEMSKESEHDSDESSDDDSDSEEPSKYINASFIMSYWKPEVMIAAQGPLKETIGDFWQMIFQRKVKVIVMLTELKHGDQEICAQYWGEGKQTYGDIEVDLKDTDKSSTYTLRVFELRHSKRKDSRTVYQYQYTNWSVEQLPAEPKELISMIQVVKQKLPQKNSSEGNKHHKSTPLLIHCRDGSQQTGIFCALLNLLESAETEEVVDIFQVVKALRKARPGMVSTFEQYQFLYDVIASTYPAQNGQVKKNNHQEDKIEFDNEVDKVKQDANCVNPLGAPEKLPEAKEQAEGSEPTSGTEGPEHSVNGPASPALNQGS

Ki	Structure (SMILES)
280 µM	O=C(O)COc1c(C(=O)O)sc(-c2ccccc2)c1Br
151 µM	CC1(C)CC(Nc2cccc(-c3sc(C(=O)O)c(OCC(=O)O)c3Br)c2)CC(C)(C)C1
